In turn, `CC(C)(CO)CCCCC(CCCCC(C)(C)CO)C(C)(C)O` [Compound 6.12, 7-(1-Hydroxy-1-methylethyl)-2,2,12,12-tetramethyltridecane-1,13-diol] came in with a melting point of 72 to 74 °C.

The molecule `CC(C)(CO)Cc1cccc(C(O)c2cccc(CC(C)(C)CO)c2)c1` [Compound 6.46, 3-(3-{Hydroxy-[3-(3-hydroxy-2,2-dimethylpropyl)-phenyl]-methyl}-phenyl)-2,2-dimethylpropan-1-ol] yielded a melting point of 98 to 99 °C.

The molecule `CC(C)(CO)CCCCCC(O)CCCCCC(C)(C)CO` [Compound 6.17, 2,2,14,14-Tetramethylpentadecane-1,8,15-triol] displayed a melting point of 71 to 75 °C.

`CC(C)(CO)CCCCC(O)CCCCC(C)(C)CO` [Compound 6.1, 2,2,12,12-Tetramethyltridecane-1,7,13-triol] gave a melting point of 72 to 74 °C.
